Measurements: US20240352418A1, “METHOD FOR PRODUCING MULTINUCLEATED MEGAKARYOCYTE WITH ENHANCED PLATELET PRODUCTION CAPABILITY, METHOD FOR PRODUCING PLATELETS, METHOD FOR PRODUCING PLATELET PREPARATION, AND METHOD FOR PRODUCING BLOOD PREPARATION” (Megakaryon Corporation, priority 2021, published 2024)

How the values were obtained:
[1] = system: multinucleated megakaryocytes induced from immortalized megakaryocyte cell line (MKCL); experiment: Size and expansion of multinucleated megakaryocytes after BSA fractionation (FSC, phase-contrast microscope); format: cell-based, human; settings: F1 fraction, phase-contrast images, FIG. 4; AZ191 1 μmol/L and blebbistatin 10 μmol/L added together to GNF351 + Y-39983 (1B vs 1A); harmine 5 μmol/L added on top (Example 1 vs 1B)
Excerpt: Multinucleation was induced by culturing the immortalized megakaryocyte cell line obtained in Example 1(1) in the same manner as in Example 1(2). The obtained multinucleated megakaryocytes were fractionated according to the size of multinucleated megakaryocytes using bovine serum albumin. Specifically, a three-way stopcock was attached to a 50-ml injection syringe with a plunger removed, and the syringe was fixed with a clamp with a leading end of the tube facing downward. A 30% (w/v) albumin solution (derived from bovine serum, fatty acid free, Fujifilm Wako Pure Chemical Corporation #017-22231) was diluted with 1×HBSS (ThermoFisher #14175095) to prepare 2%, 4%, and 16% BSA solutions, and 16% (10 ml), 4% (4 ml), 2% (4 ml), and 0% (2 ml) solutions were layered in the above syringe in the stated order. A cell suspension containing 75×10^5 multinucleated megakaryocyte cells prepared using 2 ml of HBSS was then applied and allowed to stand for 50 minutes, so that the cells were settled under natural gravity. Then, the three-way stopcock was loosened, and the cells were collected by dropping droplets thereof. As a result, the cell population containing the multinucleated megakaryocytes was fractionated into fractions 1 to 4 (F1 to F4). Regarding the multinucleated megakaryocytes of each fraction, the number of sets of chromosomes (N) was analyzed in the same manner as in Example 1(3) above (Example 1). […]
After the fractionation, platelets were produced from multinucleated megakaryocytes by culturing the multinucleated megakaryocytes in the production culture medium excluding DOX. […] After the culturing, regarding the cell suspension containing platelets, the amount of platelets produced per megakaryocyte was calculated in the same manner as in Example 1(4).

[2] = system: immortalized megakaryocyte cell line (MKCL); experiment: Degree of multinucleation (number of sets of chromosomes, PI staining, flow cytometer); format: cell-based, human; settings: cultured 3 days with DOX; FIG. 1; harmine alone 10 μmol/L in growth medium (control 2); Example 1 = multinucleation culture medium; vs control 1 (growth medium)
Experimental: Next, multinucleation of immortalized megakaryocytes was induced by culturing, in a culture medium to which an AhR inhibitor, a ROCK inhibitor, a DYRK inhibitor, a myosin 2 inhibitor, and harmine were added in addition to DOX. Specifically, the immortalized megakaryocyte cell line obtained in Example 1(1) was suspended in a multinucleation culture medium below, to 3.0×10^5 cells/ml. Then, the cells were seeded on a 6-well dish at 2 mL/well, or on a 125-mL Erlenmeyer Flask at 25 mL/flask, and cultured while being shaken at 100 rpm for 3 days. The culture conditions were set to 37° C. and 5% CO2. […]
The cell suspension obtained after the culturing was collected, and the number of sets of chromosomes in the cell suspension and the size of the cells were measured using a flow cytometer. […] As for the obtained results, the number of sets of chromosomes (N) contained in megakaryocytes and the size of the cells was analyzed based on FSC and PI staining intensity (Example 1). […]
The nuclear phases of the multinucleated megakaryocytes obtained using the method for producing multinucleated megakaryocytes according to the present invention were examined. […] As for the obtained results, the number of sets of chromosomes (N) contained in megakaryocytes and the size of the cells was analyzed based on FSC and PI staining intensity. […]

Compound	expansion of multinucleated megakaryocytes [1]	degree of multinucleation (nuclear phases detected) [2]
COc1ccc2c(c1)[nH]c1c(C)nccc12 [harmine, 7-methoxy-1-methyl-9H-pyrido[3,4-b]indole]	no effect	32N multinucleated megakaryocytes were slightly detected
Cc1ccc2c(c1)C(=O)C1(O)CCN(c3ccccc3)C1=N2 (stereo not shown) [blebbistatin, 3a-hydroxy-6-methyl-1-phenyl-2,3-dihydropyrrolo[2,3-b]quinolin-4-one]	facilitated expansion of multinucleated megakaryocytes	–
COc1cc(N2CCN(C)CC2)ccc1Nc1nccc(-c2cn(C)c3cnccc23)n1 [AZ191, N-[2-methoxy-4-(4-methyl-1-piperazinyl)phenyl]-4-(1-methyl-1H-pyrrolo [2,3-c]pyridin-3-yl)-2-pyrimidinamine]	facilitated expansion of multinucleated megakaryocytes	–
